# From patent US20240408086A1, “USE OF LUVADAXISTAT FOR THE TREATMENT OF COGNITIVE IMPAIRMENT” (TAKEDA PHARMACEUTICAL COMPANY LIMITED, priority 2021, published 2024)
# Key:
# [1] = test system: adult patients with persistent negative symptoms of schizophrenia; assay type: in vivo, human; conditions: 50 mg, 125 mg, 500 mg once daily
# [2] = test system: patients with schizophrenia; assay: Phase 1b crossover study: eye-blink conditioning (EBC); assay type: in vivo, human
# Description: (§1) NCT03359785 was a randomized, double-blind, placebo-controlled cross-over Phase 1b clinical trial in schizophrenia patients at a single site to evaluate PD effects, safety, tolerability, and pharmacokinetics of multiple oral doses of Compound (I). The objective of the study was to assess pharmacodynamic (PD) biomarkers of Compound (I) on measures related to cerebellar circuitry function and NMDA pharmacology that are known to be affected in schizophrenia.
# The primary endpoint was the average percentage of conditioned responses during the eye-blink conditioning (EBC) test at day 8 of each treatment period (FIG. 10). EBC was used to assess the impact of Compound (I) on cerebellar circuitry function. EBC is a highly conserved reflex that is dependent on cerebellar circuitry, with NMDA receptors playing a key role. EBC is impaired in patients with schizophrenia compared with healthy controls.
# All endpoints were analyzed as change from baseline compared to placebo within the same subjects. Statistical comparisons were conducted with an ANOVA model, with treatment sequence, period, and treatment as fixed effects, and subject as a random effect. […]
# Mouse [3] = assay: BALB/C social interaction; assay type: in vivo; parameters: key: a + sign means efficacious; a − sign means not efficacious; conditions: for BALB/C social interaction (negative symptoms): 14-Day Once Daily (QD); for BALB/C social interaction (acute): Single Dose
# Description: (§2) In Table 1, a + sign means efficacious, a − sign means not efficacious, and an empty cell indicates a dose was not tested.
# [4] = test system: patients with schizophrenia; assay: Phase 1b crossover study: auditory steady state response (ASSR) gamma band power; assay type: in vivo, human
# Description: as §1
# (§3) Evoked potentials in the electroencephalogram were also tested to assess the impact of multiple oral doses of Compound (I) on NMDA-sensitive physiological responses that are affected in schizophrenia. Specifically, mismatch negativity (MMN), auditory steady state response (ASSR), and P300 were measured at baseline and following 8 days of treatment in both periods.
# ASSR are evoked oscillatory responses that are entrained to the frequency and phase of temporally modulated stimuli. Individuals with schizophrenia experience subjective sensory anomalies and objective deficits on assessment of sensory function. These deficits can be produced by abnormal signaling in the sensory pathways and sensory cortex or by later-stage disturbances in the cognitive processing of such inputs. ASSR can be used to assess the integrity of sensory pathways including cortical processing. ASSR was measured at midline central electrode (Cz) of EEG.
# (§4) All endpoints were analyzed as change from baseline compared to placebo within the same subjects. Statistical comparisons were conducted with an ANOVA model, with treatment sequence, period, and treatment as fixed effects, and subject as a random effect. As a supplementary analysis, an analysis of covariance model (ANCOVA) was applied to the primary endpoint with (period) baseline as a covariate, treatment sequence, period, treatment effect and baseline-by-treatment as fixed effects, and subject as a random effect.
# [5] = test system: patients with schizophrenia; assay: Phase 1b crossover study: mismatch negativity (MMN) amplitude; assay type: in vivo, human
# Description: as §1, §3
# MMN is an oddball event-related potential sensitive to NMDA-receptor pharmacology. MMN is an event related potential (ERP) evoked in response to unattended changes in background stimulation and is responsive to D-serine elevations. There is evidence of D-serine administration improving MMN in patients with schizophrenia. MMN reflects an automatic process of detecting a mismatch between a deviant stimulus and a sensory-memory trace (FIGS. 11A, 11B). Smaller amplitudes of MMN have been consistently identified in schizophrenia participants, with a large effect size compared with healthy controls. In this study, MMN amplitude was measured at Midline frontal electrode (Fz) of electroencephalogram [EEG].
# as §4
# mouse hippocampus = assay: Hippocampal long-term potentiation (LTP) after acute and sub-chronic oral dosing; assay type: in vivo, mice
# Protocol: In this study, hippocampal synaptic plasticity was evaluated using a well-established long-term potentiation (LTP) paradigm after acute and sub-chronic (14 days) dosing with Compound (I).
# Wild-type mice aged 5-6 weeks (total of 97; n=5-8 per condition) were given acute or sub-chronic (14-day) oral doses of Compound (I) (from 0.001 mg/kg to 10 mg/kg, p.o.) or vehicle (1% Tween 80 in 0.5% methylcellulose). Hippocampal slices were harvested after 5 hours. Cerebellum and blood plasma were also obtained to measure D-serine levels achieved in the experimental animals.
# Electrophysiological recordings were obtained from a single hippocampal slice placed on the chamber and perfused with aCSF at a constant rate. Extracellular field excitatory postsynaptic potentials (fEPSPs) were recorded in the CA1 stratum radiatum using a glass micropipette filled with aCSF. fEPSPs were evoked by electrical stimulation of Schaffer collaterals/commissural pathway at 0.1 Hz with a glass stimulating electrode placed in the stratum radiatum.
# To test the effect of Compound (I) on basal synaptic transmission, Input/Output […] curves were constructed at the beginning of the experiment. The slope of fEPSPs was measured and plotted against different intensities of stimulation (from 0 to 100 μA). Long-term potentiation (LTP) was induced by a theta burst stimulation protocol (10 bursts of 4 pulses at 100 Hz, with 200 ms between bursts) at baseline stimulation intensity. Following this conditioning stimulus, a 1-hour test period was recorded where responses were again elicited by a single stimulation every 10 seconds (0.1 Hz) at the same stimulus intensity.
# Mouse [6] = assay: Poly I:C social interaction (acute); assay type: in vivo; parameters: key: a + sign means efficacious; a − sign means not efficacious; conditions: Single Dose
# Description: as §2
# D-serine in cerebellum = assay: D-serine increase in cerebellum (6 hours); assay type: in vivo; parameters: key: a + sign means efficacious; a − sign means not efficacious; conditions: Mouse
# Description: DAAO inhibition increases levels of D-serine, a co-agonist of the N-methyl-d-aspartate (NMDA) receptor. […] Increases in cerebellum D-serine levels may also influence distal regions of the brain (such as the hippocampus) or cortical regions, through a mechanism that remains to be elucidated. […] In Table 1, a + sign means efficacious, a − sign means not efficacious, and an empty cell indicates a dose was not tested.
compound,measurement,setting,value
"O=c1[nH]nc(CCc2ccc(C(F)(F)F)cc2)cc1O [Compound (I), luvadaxistat]",Negative symptoms as measured with the BNSS,[1],no significant improvements
same,"EBC change from baseline, effect size vs placebo (ANCOVA)","[2]; 50 mg for 8 days, p=0.109",0.246
same,"EBC change from baseline, effect size vs placebo (ANCOVA)","[2]; 500 mg for 8 days, p=0.777",−0.198
same,BALB/C social interaction (negative symptoms),Mouse [3]; 0.001 mg/kg,−
same,BALB/C social interaction (negative symptoms),Mouse [3]; 0.003 mg/kg,−
same,BALB/C social interaction (negative symptoms),Mouse [3]; 0.01 mg/kg,+
same,BALB/C social interaction (negative symptoms),Mouse [3]; 0.03 mg/kg,+
same,BALB/C social interaction (negative symptoms),Mouse [3]; 0.1 mg/kg,+
same,BALB/C social interaction (negative symptoms),Mouse [3]; 0.3 mg/kg,+
same,BALB/C social interaction (negative symptoms),Mouse [3]; 1 mg/kg,+
same,BALB/C social interaction (negative symptoms),Mouse [3]; 3 mg/kg,+
same,BALB/C social interaction (acute),Mouse [3]; 0.3 mg/kg,−
same,BALB/C social interaction (acute),Mouse [3]; 1 mg/kg,+
same,BALB/C social interaction (acute),Mouse [3]; 3 mg/kg,+
same,"ASSR gamma power, effect size vs placebo",[4]; 50 mg for 8 days,0.575
same,"ASSR gamma power, change from baseline","[4]; 50 mg for 8 days, placebo −16.282, p=0.056",2.135
same,"ASSR gamma power, effect size vs placebo",[4]; 500 mg for 8 days,0.003
same,"ASSR gamma power, change from baseline","[4]; 500 mg for 8 days, placebo 9.203, p=0.495",9.411
same,"MMN amplitude, effect size vs placebo",[5]; 50 mg for 8 days,−0.691
same,"MMN amplitude, LS means change from baseline","[5]; 50 mg for 8 days, placebo 0.669, p=0.0497",−0.239
same,"MMN amplitude, effect size vs placebo",[5]; 500 mg for 8 days,0.389
same,"MMN amplitude, LS means change from baseline","[5]; 500 mg for 8 days, placebo −0.154, p=0.8517",0.594
same,LTP in the mouse hippocampus,"mouse hippocampus; single oral doses vs vehicle, one-way ANOVA",did not significantly affect LTP
same,LTP in the mouse hippocampus,"mouse hippocampus; sub-chronic (14-day) oral dose 0.001 mg/kg, p<0.05 vs vehicle",increased LTP
same,LTP in the mouse hippocampus,"mouse hippocampus; sub-chronic (14-day) oral dose 0.01 mg/kg, p<0.05 vs vehicle",increased LTP
same,LTP in the mouse hippocampus,"mouse hippocampus; sub-chronic (14-day) oral dose 0.1 mg/kg, p<0.05 vs vehicle",decreased LTP
same,LTP in the mouse hippocampus,"mouse hippocampus; sub-chronic (14-day) oral dose 10 mg/kg, p<0.05 vs vehicle",decreased LTP
same,Poly I:C social interaction (acute),Mouse [6]; 0.3 mg/kg,−
same,Poly I:C social interaction (acute),Mouse [6]; 1 mg/kg,−
same,Poly I:C social interaction (acute),Mouse [6]; 3 mg/kg,+
same,D-serine increase in cerebellum (6 hours),"D-serine in cerebellum; 14-Day Once Daily (QD), 0.03 mg/kg",−
same,D-serine increase in cerebellum (6 hours),"D-serine in cerebellum; 14-Day Once Daily (QD), 0.1 mg/kg",−
same,D-serine increase in cerebellum (6 hours),"D-serine in cerebellum; 14-Day Once Daily (QD), 0.3 mg/kg",+
same,D-serine increase in cerebellum (6 hours),"D-serine in cerebellum; 14-Day Once Daily (QD), 1 mg/kg",+
same,D-serine increase in cerebellum (6 hours),"D-serine in cerebellum; 14-Day Once Daily (QD), 3 mg/kg",+
same,D-serine increase in cerebellum (6 hours),"D-serine in cerebellum; Single Dose, 0.3 mg/kg",+
same,D-serine increase in cerebellum (6 hours),"D-serine in cerebellum; Single Dose, 1 mg/kg",+
same,D-serine increase in cerebellum (6 hours),"D-serine in cerebellum; Single Dose, 3 mg/kg",+
same,D-serine increase in cerebellum (6 hours),"D-serine in cerebellum; Single Dose, 10 mg/kg",+
